# Assay results: US11702469B2, “Recombinant EGFL7, EGFL7 antibodies, and uses thereof” (Ohio State Innovation Foundation, priority 2017, dated 2023)
# Experiments:
# HES1 [1] = assay: OP9-DLL1 co-culture NOTCH activation (HES1 RT-PCR), THP-1; type: cell-based, human; settings: THP-1 co-cultured with OP9-DLL1
# Excerpt: FIG. 27. EGFL7 prevents NOTCH ligand inactivation of Notch signaling in AML cells. (A) Overview of experiments involving co-culture of THP-1 cells with mouse stromal cells overexpressing DLL1. (B) Total RNA was extracted for RT-PCR analysis of HES1 with β-ACTIN as internal control. ^###P<0.001 OP9-DLL1 vs OP9; *P<0.05, **P<0.01 vs untreated control.
# Total RNA was extracted using Trizol reagent (Invitrogen, Carlsbad, Calif., USA). cDNA was synthesized using SuperScript III reagents (Invitrogen) according to the manufacturer's instruction. Quantitative Real-Time RT-PCR was performed using commercially available TaqMan Gene Expression Assay primers and the 7900HT Fast Real-Time PCR System (Applied Biosystems, Foster City, Calif., USA). The expression levels of target genes were normalized to β-ACTIN. Relative expression was calculated by using the comparative 2^−ΔΔct method.
# It was next determined whether EGFL7 is inhibiting NOTCH signaling in AML cells by competing with canonical NOTCH ligand binding. To perform these experiments, THP-1 cells were cultured on DLL4-Fc and IgG-Fc (control) coated plates to activate NOTCH signaling. The effect of rEGFL7 and anti-EGFL7 on this DLL4-Fc NOTCH activation was also tested (FIG. 24A). […] For these experiments, co-culture was performed of THP-1 cells with stromal cells (OP9) overexpressing membrane bound DLL1 (OP9-DLL1)^25 (FIG. 27A).
# HES1 [2] = assay: DLL4-Fc coated plate NOTCH activation (HES1 qRT-PCR), THP-1; type: cell-based, human
# Method: (§1) FIG. 24A-24G. EGFL7 prevents activation of NOTCH signaling in AML cells. (FIG. 24A) Overview of experiments using DLL4-FC and IgG-FC control coated plates to induce NOTCH activation. (FIG. 24B) THP-1 cells were pre-treated with 10 μM γ-secretase inhibitor (AVA), 100 μg/ml anti-EGFL7 antibody or 0.25 μM rEGFL7 for 30 min, then transferred to IgG-Fc or DLL4-Fc coated plates. After 4 h of incubation total RNA from THP-1 cells was extracted for qRT-PCR analysis of HES1 with β-ACTIN as internal control. ^###P<0.001 DLL4-FC vs IgG-FC; ***P<0.001 DLL4+AVA, DLL4+rEGFL7, and DLL4+anti-EGFL7 vs DLL4-FC. (FIG. 24C) Primary AML blasts were pretreated with 10 μM γ-secretase inhibitor (AVA), 100 μg/ml anti-EGFL7 antibody or 0.25 μM rEGFL7 for 30 min, then transferred to IgG-Fc or DLL4-Fc coated plates. After 4 h of incubation, total RNA was extracted for RT-PCR analysis of HES1 mRNA with β-ACTIN as internal control. ^###P<0.001 DLL4-Fc vs IgG-Fc; *P<0.05, ***P<0.001 vs DLL4 Fc. THP-1 cells were treated with the indicated concentration of anti-EGFL7 (@E7) then assessed for apoptosis using (FIG. 24D) AnnexinV+ staining and FACS; *P<0.05 (FIG. 24E) Immuno-blotting for PARP1 and Casp3 cleavage. (FIG. 24F) Cell differentiation was assessed by CD11B and CD14 staining 96-hours post anti-EGFL7 treatments; *P<0.05. (FIG. 24G) To determine whether activation of NOTCH by DLL4-Fc could be accentuated by anti-EGFL7 treatment, THP-1 cells were first treated with anti-EGFL7 (100 μg/ml) and then cultured on DLL4-FC or IgG-Fc coated plates and then assessed for apoptosis using AnnexinV+ staining and FACS. *P<0.05 DLL4-Fc and anti-EGFL7; vs DLL4-FC+anti-EGFL7.
# Total RNA was extracted using Trizol reagent (Invitrogen, Carlsbad, Calif., USA). cDNA was synthesized using SuperScript III reagents (Invitrogen) according to the manufacturer's instruction. Quantitative Real-Time RT-PCR was performed using commercially available TaqMan Gene Expression Assay primers and the 7900HT Fast Real-Time PCR System (Applied Biosystems, Foster City, Calif., USA). […]
# NOTCH signaling = assay: Gamma-secretase inhibitor on Parsatuzumab induced NOTCH activation, primary blasts; type: cell-based, human
# Method: as §1, with “(FIG. 24C) Primary AML blasts were pretreated with 10 μM γ-secretase inhibitor (AVA), 100 μg/ml anti-EGFL7 antibody or 0.25 μM rEGFL7 for 30 min, then transferred to IgG-Fc or DLL4-Fc coated plates. After 4 h of incubation, total RNA was extracted for RT-PCR analysis of HES1 mRNA with β-ACTIN as internal control. ^###P<0.001 DLL4-Fc vs IgG-Fc; *P<0.05, ***P<0.001 vs DLL4 Fc.” left out, “DLL4-FC+anti-EGFL7. […]” for “DLL4-FC+anti-EGFL7.”
# FLT3-ITD AML = settings: phase I/II study in AML; cited from earlier work
# acute myeloid leukemia = settings: PSC-833 arm with cytarabine, daunorubicin and etoposide; cited from earlier work
compound,measurement,setting,value
"NC(=O)[C@@H](CCC(F)(F)F)N(Cc1ccc(-c2ncon2)cc1F)S(=O)(=O)c1ccc(Cl)cc1 [AVA, Avagacestat]",DLL1-mediated NOTCH activation (HES1),HES1 [1],significantly reduced
same,DLL4-Fc-mediated NOTCH activation (HES1),"HES1 [2]; pre-treated 30 min: 10 μM AVA, 100 μg/ml anti-EGFL7 or 0.25 μM rEGFL7, then 4 h, vs DLL4-FC",significantly reduced
same,Parsatuzumab induced NOTCH activation,NOTCH signaling,blocked
"DLL4-Fc: Recombinant human DLL4 (Fc chimera, ab108557), canonical NOTCH ligand",NOTCH activation assessed by HES1 expression,"HES1 [2]; DLL4-Fc vs IgG-Fc coated plates, 4 h",increases in NOTCH activation
CCc1nc(C(N)=O)c(Nc2ccc(N3CCC(N4CCN(C)CC4)CC3)c(OC)c2)nc1NC1CCOCC1 [Gilteritinib],tolerability and safety,FLT3-ITD AML,"tolerable, safe"
"C/C=C/C[C@@H](C)C(=O)[C@H]1C(=O)N[C@@H](C(C)C)C(=O)N(C)CC(=O)N(C)[C@@H](CC(C)C)C(=O)N[C@@H](C(C)C)C(=O)N(C)[C@@H](CC(C)C)C(=O)N[C@@H](C)C(=O)N[C@H](C)C(=O)N(C)[C@@H](CC(C)C)C(=O)N(C)[C@@H](CC(C)C)C(=O)N(C)[C@@H](C(C)C)C(=O)N1C [PSC-833, valspodar]",early deaths,acute myeloid leukemia,excessive early deaths
